Among the data in PubChem BioAssay (NCI) are GI50 and TGI values, retold here.

Broadly, the GI50 is the concentration at which growth is held to half of that of the control. Usually TGI stands for the concentration at which net growth stops. Read a high TGI as lower sensitivity of the cells.

Test systems include SF-268 CNS; PC-3 prostate; SK-MEL-28 melanoma; CCRF-CEM leukemia; SF-295 CNS; NCI-H226 lung; ACHN renal; UACC-62 melanoma; MDA-MB-231 breast; MOLT-4 leukemia.
What all share (test): DTP human tumour cell line panel, 48 h

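Tested at 5 concentrations; 48 h exposure; 96-well plates; endpoints linearly interpolated, else capped at highest concentration. GI50 is the concentration that inhibits growth by half. At the TGI there is no net growth.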 A value given as a limit tells only on which side of the number the result lay.

Regarding `O=C1C(Cl)=C(N2CCOCC2)C(=O)c2ccccc21`, the GI50 in the assay with SF-268 CNS is 4.88 µM; with PC-3 prostate it was 9.38 µM; in the assay with SK-MEL-28 melanoma, 2.69 µM; in the assay on CCRF-CEM leukemia, 2.53 µM; with SF-295 CNS, 19.2 µM; in the assay with NCI-H226 lung, 11.8 µM. Also, the results for the GI50 in the assay on ACHN renal, in the assay on UACC-62 melanoma and in the assay with MDA-MB-231 breast were 1.99 µM, 3.06 µM and 1.75 µM, respectively. Also, the TGI was found to be 16.8 µM in the assay on SF-268 CNS; 23.7 µM with PC-3 prostate; 6.32 µM in the assay on SK-MEL-28 melanoma; 6.77 µM with CCRF-CEM leukemia; 36.7 µM in the assay on SF-295 CNS; 24.2 µM with NCI-H226 lung. For the same compound, the results for the TGI with ACHN renal, in the assay on UACC-62 melanoma and in the assay on MDA-MB-231 breast were 3.48 µM, 10.7 µM and 3.72 µM, respectively.

In the case of `N#CC(C#N)=CN1CCN(C(=O)c2ccccc2)C1=S`, the GI50 with SF-268 CNS is 21.3 µM; with PC-3 prostate it was 60 µM; in the assay with SK-MEL-28 melanoma, 45.4 µM; in the assay on MOLT-4 leukemia, 39.2 µM; in the assay on CCRF-CEM leukemia, > 100 µM; in the assay with SF-295 CNS it was 46.2 µM. Also, the results for the GI50 in the assay with ACHN renal, with UACC-62 melanoma and in the assay on MDA-MB-231 breast were 18.8 µM, 50.4 µM and 36.1 µM, respectively. The total growth inhibition concentration (TGI) in the assay with SF-268 CNS was 49 µM; in the assay with PC-3 prostate, > 100 µM; with SK-MEL-28 melanoma, > 100 µM; in the assay with MOLT-4 leukemia, > 100 µM; in the assay on CCRF-CEM leukemia it was > 100 µM; in the assay with SF-295 CNS, > 100 µM. The results for the total growth inhibition concentration (TGI) in the assay on ACHN renal, with UACC-62 melanoma and with MDA-MB-231 breast were 43.6 µM, > 100 µM and > 100 µM, respectively.

Turning to `CCOC(=O)C#Cc1ccc(C#CC(=O)OCC)cc1`, the TGI is > 22.4 µM in the assay with SF-268 CNS; > 28.4 µM in the assay on PC-3 prostate; > 20.9 µM with SK-MEL-28 melanoma; > 20.8 µM in the assay with CCRF-CEM leukemia; > 32.1 µM with SF-295 CNS; > 23.7 µM in the assay with NCI-H226 lung. For the same compound, the TGI in the assay on ACHN renal is > 21.3 µM; with UACC-62 melanoma, > 23.4 µM; in the assay on MDA-MB-231 breast, > 22.7 µM.

As for `Cc1nc(NC(=S)Nc2ccc(F)cc2)sc1C(=O)NNC(=S)Nc1ccc(F)cc1`, the GI50 in the assay on SF-268 CNS is 10.7 µM; with PC-3 prostate it was 4.38 µM; in the assay on SK-MEL-28 melanoma, 8.65 µM; in the assay with MOLT-4 leukemia it was 3.33 µM; in the assay on CCRF-CEM leukemia, 2.56 µM; in the assay on SF-295 CNS, 3.96 µM. Also, the results for the GI50 with NCI-H226 lung, in the assay on UACC-62 melanoma and with MDA-MB-231 breast were 14.1 µM, 3.01 µM and 10.4 µM, respectively. The total growth inhibition concentration (TGI) in the assay with SF-268 CNS was 28.5 µM; in the assay on PC-3 prostate it was 80.7 µM; in the assay with SK-MEL-28 melanoma it was 28.3 µM; with MOLT-4 leukemia, > 100 µM; in the assay on CCRF-CEM leukemia, 15.7 µM; in the assay with SF-295 CNS, 21.1 µM. In addition, the TGI in the assay on NCI-H226 lung is 57.8 µM; in the assay with UACC-62 melanoma, 18.9 µM; in the assay on MDA-MB-231 breast it was 25.1 µM.

In the case of `c1ccc2[nH]c(-c3ccc(OCCCCCOc4ccc(-c5nc6ccccc6[nH]5)cc4)cc3)nc2c1`, the GI50 in the assay with PC-3 prostate is 2.76 µM; in the assay with SK-MEL-28 melanoma, 0.394 µM; in the assay on MOLT-4 leukemia, 1.07 µM; in the assay with CCRF-CEM leukemia, 0.195 µM; with SF-295 CNS, 5.61 µM; in the assay on NCI-H226 lung, 21.3 µM. Further, the GI50 in the assay with ACHN renal is 3.29 µM; with UACC-62 melanoma it was 4.95 µM; in the assay with MDA-MB-231 breast, 2.07 µM. Moreover, the concentration for total growth inhibition (TGI) in the assay on PC-3 prostate is 8.05 µM; with SK-MEL-28 melanoma, 0.903 µM; in the assay with MOLT-4 leukemia, 3.48 µM; in the assay on CCRF-CEM leukemia it was 0.54 µM; with SF-295 CNS, 13.1 µM; in the assay on NCI-H226 lung, 55.9 µM. Also, the TGI with ACHN renal turned out to be 11.9 µM; in the assay with UACC-62 melanoma, 10.8 µM; in the assay on MDA-MB-231 breast it was 7.08 µM.

As for `NC1CCC[C@@H](O)[C@H]1O` (stereo partly drawn), the concentration for total growth inhibition (TGI) with SF-268 CNS, with PC-3 prostate, in the assay with SK-MEL-28 melanoma, with CCRF-CEM leukemia, in the assay on SF-295 CNS and in the assay with NCI-H226 lung was > 100 µM in each case. For the same compound, the TGI in the assay with ACHN renal, with UACC-62 melanoma and with MDA-MB-231 breast was > 100 µM throughout.

On to `Cl.Fc1c[c-]c(-c2ccccn2)c(F)c1.[Pt].c1ccc([PH+](CC[PH+](c2ccccc2)c2ccccc2)c2ccccc2)cc1`, for which the GI50 in the assay on PC-3 prostate was 0.0514 µM; in the assay with SK-MEL-28 melanoma, 0.167 µM; in the assay with MOLT-4 leukemia, 0.291 µM; in the assay with SF-295 CNS, 0.0474 µM; with NCI-H226 lung it was 0.184 µM; with ACHN renal, 0.271 µM. The GI50 with UACC-62 melanoma is 0.128 µM; in the assay on MDA-MB-231 breast, 0.178 µM. The total growth inhibition concentration (TGI) amounted to 1.09 µM in the assay on PC-3 prostate; 1.4 µM in the assay with SK-MEL-28 melanoma; 1.29 µM in the assay with MOLT-4 leukemia; 0.328 µM with SF-295 CNS; 1.13 µM with NCI-H226 lung; 0.993 µM in the assay on ACHN renal. Moreover, the TGI in the assay with UACC-62 melanoma worked out at 0.364 µM; with MDA-MB-231 breast, 0.496 µM.

On to `Cc1nn2c(/C=C3/C(=O)Nc4ccccc43)c(-c3ccc(Cl)cc3)nc2s1`, for which the GI50 was 19.9 µM with SF-268 CNS; 12.2 µM in the assay with PC-3 prostate; > 50 µM with MOLT-4 leukemia; 12.3 µM in the assay on CCRF-CEM leukemia; 10.3 µM in the assay on SF-295 CNS; 10.1 µM in the assay on NCI-H226 lung. Besides, the GI50 in the assay with ACHN renal is 9.86 µM; with UACC-62 melanoma it was 10.2 µM; in the assay with MDA-MB-231 breast, 7.05 µM. Besides, the concentration for total growth inhibition (TGI) is > 50 µM in the assay with SF-268 CNS; 32.2 µM in the assay with PC-3 prostate; > 50 µM in the assay with MOLT-4 leukemia; > 50 µM in the assay with CCRF-CEM leukemia; 31.8 µM in the assay with SF-295 CNS; 27.5 µM in the assay with NCI-H226 lung. The TGI was 20 µM in the assay on ACHN renal, 21.4 µM in the assay on UACC-62 melanoma and 21.3 µM in the assay on MDA-MB-231 breast.

Regarding `O=C(Nc1ccc2oc(=O)c(C(=O)O)cc2c1)Oc1ccccc1`, the TGI in the assay on SF-268 CNS, in the assay with PC-3 prostate, in the assay with SK-MEL-28 melanoma, in the assay on MOLT-4 leukemia, in the assay on SF-295 CNS and with NCI-H226 lung was > 100 µM throughout. Also, the TGI with ACHN renal, in the assay with UACC-62 melanoma and with MDA-MB-231 breast was > 100 µM in each case.
